# Like-named read-outs stand apart in the source and are kept apart here.
# Legend:
# [1] = design: species or system human; conditions: in vivo
# Method: A comparative pharmacokinetic study of orally administered deramciclane in rats, dogs, rabbits and humans (Klebovich et al Pharm. Pharmacol. Commun., 4: 129-136, 1998), it was shown that the plasma concentration curves obtained after the administration of a single 3mg/kg oral dose of deramciclane to rats (dogs, rabbits) and human show considerable species specific differences. […] Thus a 40-times lower oral dose of deramciclane could be used in man to result in the same maximal plasma concentration as in rat. […] Thus over 300 times lower oral doses should result in equal exposure in humans than in rats. Basing only the Cmax difference between rat and man, it can be predicted that considerably lower doss should be centrally acitive in humans than in rat. The minimum oral effective anti-anxiety dose in rats was 1 mg/kg (1-30mg/kg the full range; see above), i.e. in a 70 kg-man this would mean 70 mg dose. […] This would result in 70 mg/40= 1.75 mg (i.e. 0.025 mg/kg) as an effective dose in man.
# [2] = test system: anxiety, specifically GAD; test: randomised placebo-controlled double-blind study in GAD, Hamilton Anxiety Scale (HAM-A); format: in vivo, humans; conditions: GAD patients
# Method: (§1) The efficacy of deramciclane in the treatment of anxiety, specifically GAD, was studied in a randomised placebo-controlled double-blind study. In addition, the dose-dependency of the effects of deramciclane was evaluated. Total of 208 patients were included in the study. The subjects were randomly assigned to four parallel groups to receive one tablet twice daily (b.i.d) of a placebo, 5mg (=10mg/day), 15mg (=30mg/day), or 30mg (=60mg/day) deramciclane. The study started with a one-week placebo run-in period, followed by an eight-week placebo-controlled active treatment and a two-week placebo washout period.
# The efficacy of deramciclane on anxiety symptoms was studied by the efficacy variable Hamilton Anxiety Scale (HAM-A), analyzing the change in the score and using responder criterion (at least 50 % reduction in HAM-A total score).
# depressive symptoms = test: randomised placebo-controlled double-blind study in GAD, Montgomery Åsberg Depression Rating Scale (MADRS); format: in vivo, humans; conditions: GAD patients
# Method: as §1
# The efficacy of deramciclane on depressive symptoms was studied using Montgomery Åsberg Depression Rating Scale (MADRS).
# serotonin 5HT2A-receptor [3] = target: T1, serotonin 5HT2A-receptor (Homo sapiens, UniProt P28223); conditions: cited from earlier work
# T1 sequence (P28223 whole entry): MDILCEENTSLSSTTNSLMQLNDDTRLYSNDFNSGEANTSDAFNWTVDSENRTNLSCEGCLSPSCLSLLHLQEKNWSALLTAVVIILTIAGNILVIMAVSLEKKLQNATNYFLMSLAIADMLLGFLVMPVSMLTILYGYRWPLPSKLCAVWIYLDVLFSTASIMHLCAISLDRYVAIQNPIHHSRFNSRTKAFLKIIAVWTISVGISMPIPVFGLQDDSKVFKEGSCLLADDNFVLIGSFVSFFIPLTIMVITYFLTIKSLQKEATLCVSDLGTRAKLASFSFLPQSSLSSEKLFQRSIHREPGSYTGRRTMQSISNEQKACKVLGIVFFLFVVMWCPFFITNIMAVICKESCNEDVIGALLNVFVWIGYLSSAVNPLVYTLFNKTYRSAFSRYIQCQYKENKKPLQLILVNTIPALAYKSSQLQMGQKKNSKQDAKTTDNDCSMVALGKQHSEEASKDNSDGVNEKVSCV
# [4] = target: T2, serotonin 5-HT2C-receptor (Homo sapiens, UniProt P28335); conditions: cited from earlier work
# T2 sequence (P28335 33-458): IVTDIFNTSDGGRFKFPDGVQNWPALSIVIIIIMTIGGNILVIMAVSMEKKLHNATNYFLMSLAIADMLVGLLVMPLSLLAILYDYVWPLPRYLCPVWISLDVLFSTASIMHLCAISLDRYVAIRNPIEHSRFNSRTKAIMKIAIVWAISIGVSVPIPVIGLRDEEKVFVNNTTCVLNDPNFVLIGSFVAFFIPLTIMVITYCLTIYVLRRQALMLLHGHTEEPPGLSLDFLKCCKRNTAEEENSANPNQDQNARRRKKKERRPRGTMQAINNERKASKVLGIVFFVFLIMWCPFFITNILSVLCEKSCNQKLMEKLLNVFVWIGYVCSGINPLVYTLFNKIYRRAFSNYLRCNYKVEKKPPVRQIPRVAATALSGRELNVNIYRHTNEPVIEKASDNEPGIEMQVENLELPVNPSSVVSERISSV
# rats [5] = conditions: cited from earlier work
# rats [6] = conditions: single intraperitoneal administration; cited from earlier work
# mice [7] = conditions: single subcutaneous administration, 3 mg/kg; cited from earlier work
# rats [8] = conditions: cited from earlier work; remark: listed apart in the source
# rat = conditions: intraperitoneally 1 or 10 mg/kg, 8 times, twice a day, before the test; cited from earlier work
# mice [9] = conditions: oral doses 48-160 mg/kg; cited from earlier work
# rats [10] = conditions: oral doses of 25 and 100 mg/kg; cited from earlier work
# [11] = rats, 3 mg/kg, cited from earlier work
# [12] = rat, cited from earlier work
# [13] = human, cited from earlier work
# [14] = humans, cited from earlier work; for Cmin and Cmax range: repeated administration for one week
# serotonin 5HT2A-receptor [15] = target: T1, serotonin 5HT2A-receptor; design: serotonin 5-HT2A-receptors in frontal cortex of healthy male volunteers; from tissue; host or cells: frontal cortex of living healthy male volunteers; conditions: humans, brain 5HT2A-receptor, single oral dose; cited from earlier work
# [16] = single oral administration, 3 mg/kg
smiles,measurement,setting,value
"CN(C)CCO[C@]1(c2ccccc2)C[C@H]2CC[C@]1(C)C2(C)C [deramciclane, (lR,2S,4R)-(-)-2-[N,N-(dimethylaminoethoxy)]-2-phenyl-1,7,7-trimethyl-bicyclo[2.2.1]heptane]",factor by which oral dose in man can be lower for the same maximal plasma concentration as in rat,[1],40 times
same,factor by which oral doses in humans can be lower for equal exposure as in rats,[1],over 300 times
same,HAM-A score compared with placebo,"[2]; 5 mg b.i.d, eight weeks",No difference
same,responders (at least 50 % reduction in HAM-A scale),"[2]; 5 mg b.i.d. (n=31), placebo 54 %",57%
same,decrease of HAM-A score from baseline,"[2]; 15 mg b.i.d, eight weeks, p=0.006 versus placebo",14.5 points
same,responders (at least 50 % reduction in HAM-A scale),"[2]; 15 mg b.i.d. (n=39), p=0.020 versus placebo",76%
same,responders (at least 50 % reduction in HAM-A scale),[2]; 30 mg b.i.d. (n=37),70%
same,decrease of HAM-A score from baseline,"[2]; 30 mg b.i.d., eight weeks, not significant versus placebo",14.5 points
same,effect on MADRS scores,depressive symptoms; 5 mg b.i.d,ineffective
same,decrease of MADRS scores,"depressive symptoms; 15mg b.i.d, p= 0.028",7.7 points
same,decrease of MADRS scores,"depressive symptoms; 30 mg b.i.d, p= 0.016",8.0 points
same,antagonism of the receptor,serotonin 5HT2A-receptor [3],potent antagonist
same,binding affinity,serotonin 5HT2A-receptor [3]; in vitro,high affinity
same,antagonism of the receptor,[4],potent antagonist
same,binding affinity,[4]; in vitro,high affinity
same,minimum oral effective anti-anxiety dose,rats [5]; oral,1 mg/kg
same,activity in punished drinking test,"rats [5]; single oral administration, 1 mg/kg and 10 mg/kg",active
same,minimum effective dose (social interaction time),rats [6],0.7 mg/kg
same,activity in two compartment test,mice [7],active
same,caerulein-induced decrease in exploratory behavior,rats [8]; intraperitoneal dose of 0.5 mg/kg,able to attenuate
same,effect in elevated plus maze test,"rats [8]; rats, single intraperitoneal doses 0.1 mg/kg - 5 mg/kg",totally ineffective
same,helpless behaviour induced by inescapable electric foot shocks,rat,dose dependently attenuated
same,effect on tetrabenazine-induced ptosis,mice [9],negligible
same,effect in forced swimming test,rats [10],clearly ineffective
same,radioactivity in several organs including blood and the brain,[11]; intravenous administration,high radioactivity
same,"radioactivity in organs, especially in the brain","[11]; oral administration, compared with intravenous",substantially lower
same,peak plasma concentration (Cmax),[12]; single 3 mg/kg oral dose,5.4 ng/mL
same,mean AUC 0 - ∞,[12]; [16],11.9 ng·h/mL
same,peak plasma concentration (Cmax),[13]; single 3 mg/kg oral dose,217.5 ng/mL
same,mean AUC 0 - ∞,[13]; [16],3737.8 ng·h/mL
same,Cmin and Cmax range,[14]; 20 mg daily dose,16 to 33 ng/mL
same,Cmin and Cmax range,[14]; 60 mg daily dose,48 to 91 ng/mL
same,Cmax,[14]; single oral administration of 20 mg,24 ± 9.4 ng/mL
same,Cmax,[14]; single oral administration of 30 mg,27 ± 6.1 ng/mL
same,plasma concentration at 50% receptor occupancy,serotonin 5HT2A-receptor [15],~21 ng/mL
same,plasma concentration at 90% receptor occupancy,serotonin 5HT2A-receptor [15],about 70 ng/ml

# Reference: patent EP1133986A1, “Use of deramciclane for the treatment of anxiety and depression” (priority 2000, dated 2001)
